What was measured:
[1] = biological target: Integrin alpha-V/beta-5 (Homo sapiens) (UniProt P06756+P18084); experiment: Inhibition of alpha-V-beta-5 receptor; format: protein-complex assay
[2] = biological target: Integrin alpha-V/beta-3 (Homo sapiens) (UniProt P05106+P06756); experiment: Inhibition of alpha-V-beta-3 receptor; format: protein-complex assay

Activity [1]	Activity [2]	Compound
> 5 µM	0.28 µM	N=C(N)NCCC[C@@H]1NC(=O)[C@H]2CCCC[C@H](NC(=O)[C@H](CC(=O)O)NC(=O)CNC1=O)C(=O)N2
0.538 µM	0.159 µM	N=C(N)NCCC[C@@H]1NC(=O)[C@H]2C/C=C\C[C@H](NC(=O)[C@H](CC(=O)O)NC(=O)CNC1=O)C(=O)N2
> 5 µM	0.925 µM	N=C(N)NCCC[C@@H]1NC(=O)[C@@H]2C/C=C\C[C@@H](NC(=O)[C@H](CC(=O)O)NC(=O)CNC1=O)C(=O)N2
> 5 µM	0.615 µM	N=C(N)NCCC[C@@H]1NC(=O)[C@@H]2CCCC[C@@H](NC(=O)[C@H](CC(=O)O)NC(=O)CNC1=O)C(=O)N2

From ChEMBL document CHEMBL1146186, “Synthesis and biological evaluation of type VI beta-turn templated RGD peptidomimetics” (Bioorg Med Chem Lett, 2006)
